Our source for the IC50 values is patent US12486267B2, “Imidazo[1,2-A]pyridine and [1,2,4]triazolo[1,5-A]pyridine derivatives as TLR9 inhibitors for the treatment of fibrosis” (BRISTOL-MYERS SQUIBB COMPANY, priority 2020, dated 2025).

Structures are written as SMILES.

Format in all cases: cell-based
One assay addresses T1, human TLR7 (Homo sapiens, UniProt Q9NYK1).
T1 sequence (Q9NYK1 27-1049): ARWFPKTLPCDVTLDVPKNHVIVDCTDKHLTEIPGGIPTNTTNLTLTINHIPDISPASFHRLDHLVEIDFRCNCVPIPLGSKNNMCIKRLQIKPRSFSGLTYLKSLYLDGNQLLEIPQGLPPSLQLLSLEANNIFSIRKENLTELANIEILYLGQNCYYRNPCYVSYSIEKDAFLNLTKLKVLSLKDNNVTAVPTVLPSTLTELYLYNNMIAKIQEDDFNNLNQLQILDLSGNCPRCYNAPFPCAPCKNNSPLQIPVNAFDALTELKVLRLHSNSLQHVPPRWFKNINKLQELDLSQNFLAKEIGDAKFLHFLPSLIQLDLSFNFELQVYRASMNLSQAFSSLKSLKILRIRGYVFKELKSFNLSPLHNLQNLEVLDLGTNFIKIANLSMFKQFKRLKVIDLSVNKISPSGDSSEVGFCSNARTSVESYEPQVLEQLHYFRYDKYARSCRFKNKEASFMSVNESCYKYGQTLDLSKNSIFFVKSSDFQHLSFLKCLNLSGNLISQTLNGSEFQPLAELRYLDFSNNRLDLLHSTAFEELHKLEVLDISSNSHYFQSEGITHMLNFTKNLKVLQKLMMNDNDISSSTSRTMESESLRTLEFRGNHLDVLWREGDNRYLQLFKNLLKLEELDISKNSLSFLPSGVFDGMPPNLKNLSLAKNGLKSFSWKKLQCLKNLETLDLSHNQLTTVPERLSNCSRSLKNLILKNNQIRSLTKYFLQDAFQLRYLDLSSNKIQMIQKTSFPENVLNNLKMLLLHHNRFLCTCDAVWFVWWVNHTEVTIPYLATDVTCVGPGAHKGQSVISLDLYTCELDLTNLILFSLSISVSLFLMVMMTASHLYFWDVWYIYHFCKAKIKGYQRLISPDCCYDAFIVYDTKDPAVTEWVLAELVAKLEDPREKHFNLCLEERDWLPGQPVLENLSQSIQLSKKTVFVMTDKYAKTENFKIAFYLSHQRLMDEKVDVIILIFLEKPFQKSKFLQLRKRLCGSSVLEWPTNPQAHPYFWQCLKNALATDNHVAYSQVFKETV
As to the kind of experiment: TLR7 inhibition reporter assay (HEK-Blue cells, SEAP reporter). The conditions noted are these: HEK-Blue cells overexpressing human TLR7; stimulated with gardiquimod 7.5 μM; 22 hour incubation; SEAP readout. The method, boiled down:
(§1)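 HEK-Blue cells with NF-κB/AP-1-driven SEAP pre-treated 30 min with compound (0.05 nM–50 μM), then stimulated with gardiquimod 7.5 μM (TLR7), R848 15.9 μM (TLR8) or ODN2006 5 nM (TLR9). SEAP detected after 22 h at 37 °C; percent inhibition relative to agonist-plus-DMSO and known-inhibitor wells.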
For orientation: Reporter assays use an easily measured gene product as a stand-in for the process of interest.

Another assay concerns the target T2, human TLR9 (Homo sapiens, UniProt Q9NR96).
T2 sequence (Q9NR96 26-1032): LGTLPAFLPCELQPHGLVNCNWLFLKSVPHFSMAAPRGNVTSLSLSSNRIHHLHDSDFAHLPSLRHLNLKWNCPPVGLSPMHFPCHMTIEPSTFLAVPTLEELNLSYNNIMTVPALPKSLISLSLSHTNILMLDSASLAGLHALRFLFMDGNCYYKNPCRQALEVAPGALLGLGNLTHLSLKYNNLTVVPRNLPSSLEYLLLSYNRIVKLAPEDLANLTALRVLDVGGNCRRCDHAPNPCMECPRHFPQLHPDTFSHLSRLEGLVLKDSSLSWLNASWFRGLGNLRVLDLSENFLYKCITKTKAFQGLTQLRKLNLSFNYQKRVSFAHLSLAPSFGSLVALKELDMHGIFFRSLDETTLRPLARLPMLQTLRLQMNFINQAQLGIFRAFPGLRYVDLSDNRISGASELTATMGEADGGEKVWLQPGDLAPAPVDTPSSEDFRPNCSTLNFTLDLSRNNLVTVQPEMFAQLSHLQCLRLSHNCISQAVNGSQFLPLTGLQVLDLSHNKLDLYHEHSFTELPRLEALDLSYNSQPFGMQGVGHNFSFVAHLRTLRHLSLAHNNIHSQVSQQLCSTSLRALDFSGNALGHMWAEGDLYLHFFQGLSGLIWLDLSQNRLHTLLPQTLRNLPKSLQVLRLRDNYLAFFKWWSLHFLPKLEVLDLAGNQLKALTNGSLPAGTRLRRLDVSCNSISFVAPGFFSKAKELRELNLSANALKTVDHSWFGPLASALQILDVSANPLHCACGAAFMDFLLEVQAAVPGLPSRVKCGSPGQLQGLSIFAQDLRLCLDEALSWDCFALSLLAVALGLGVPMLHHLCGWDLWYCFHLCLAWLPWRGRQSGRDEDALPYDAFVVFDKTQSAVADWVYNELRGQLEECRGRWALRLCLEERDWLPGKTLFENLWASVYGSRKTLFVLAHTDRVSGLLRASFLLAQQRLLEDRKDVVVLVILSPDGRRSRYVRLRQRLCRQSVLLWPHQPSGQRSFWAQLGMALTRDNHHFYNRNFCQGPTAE
The assay is described as follows: TLR9 inhibition reporter assay (HEK-Blue cells, SEAP reporter). The conditions noted are these: HEK-Blue cells overexpressing human TLR9; stimulated with ODN2006 5 nM; 22 hour incubation; SEAP readout. Put shortly:
as §1

The next assay has as its target T3, human TLR8 (Homo sapiens, UniProt Q9NR97).
T3 sequence (Q9NR97 27-1041): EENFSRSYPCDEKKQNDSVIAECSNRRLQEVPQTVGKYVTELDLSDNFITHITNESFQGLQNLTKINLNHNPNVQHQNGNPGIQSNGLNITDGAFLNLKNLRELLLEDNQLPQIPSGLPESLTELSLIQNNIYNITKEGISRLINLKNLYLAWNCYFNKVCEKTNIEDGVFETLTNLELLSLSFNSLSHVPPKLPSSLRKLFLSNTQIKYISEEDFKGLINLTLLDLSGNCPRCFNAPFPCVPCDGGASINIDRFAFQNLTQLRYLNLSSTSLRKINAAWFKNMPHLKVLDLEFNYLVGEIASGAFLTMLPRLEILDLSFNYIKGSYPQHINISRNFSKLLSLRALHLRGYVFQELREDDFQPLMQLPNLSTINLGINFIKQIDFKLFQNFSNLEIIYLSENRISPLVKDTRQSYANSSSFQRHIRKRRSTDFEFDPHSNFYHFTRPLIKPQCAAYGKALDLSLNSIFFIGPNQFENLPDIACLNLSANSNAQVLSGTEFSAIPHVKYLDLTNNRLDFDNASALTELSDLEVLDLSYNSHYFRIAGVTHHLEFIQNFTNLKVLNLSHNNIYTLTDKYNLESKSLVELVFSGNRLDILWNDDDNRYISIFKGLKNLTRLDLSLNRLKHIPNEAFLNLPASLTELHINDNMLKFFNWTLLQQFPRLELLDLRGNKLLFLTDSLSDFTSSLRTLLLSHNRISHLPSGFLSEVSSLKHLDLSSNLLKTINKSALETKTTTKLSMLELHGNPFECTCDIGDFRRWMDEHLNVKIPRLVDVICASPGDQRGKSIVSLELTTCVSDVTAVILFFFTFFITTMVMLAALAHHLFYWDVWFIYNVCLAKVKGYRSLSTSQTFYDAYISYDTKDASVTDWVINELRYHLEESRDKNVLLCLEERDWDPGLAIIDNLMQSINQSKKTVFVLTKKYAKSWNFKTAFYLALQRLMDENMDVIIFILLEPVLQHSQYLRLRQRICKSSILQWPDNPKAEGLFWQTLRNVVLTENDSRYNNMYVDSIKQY
The assay is described as follows: TLR8 inhibition reporter assay (HEK-Blue cells, SEAP reporter). The conditions noted are these: HEK-Blue cells overexpressing human TLR8; stimulated with R848 15.9 μM; 22 hour incubation; SEAP readout. The method, boiled down:
as §1

Broadly, the IC50 is the concentration that gives 50% inhibition. `CS(=O)(=O)c1ccc(-c2cn3cc(C4CCN(C5CCCN(CC6CC6)CC5)CC4)cc(F)c3n2)cc1` (single isomer, unassigned) [Example 128, 6-(1-(1-(cyclopropylmethyl)azepan-4-yl)piperidin-4-yl)-8-fluoro-2-(4-(methylsulfonyl)phenyl)imidazo[1,2-a]pyridine]: the IC50 against human TLR7 was 2.4 µM; on human TLR9, 0.0084 µM; on human TLR8 it was over 50 µM.

Consider `CS(=O)(=O)c1ccc(-c2cn3cc(C4CCN(C5CC6CCC(C5)N6C5COC5)CC4)cc(F)c3n2)cc1` (single isomer, unassigned) [Example 120, 8-fluoro-2-(4-(methylsulfonyl)phenyl)-6-(1-(8-(oxetan-3-yl)-8-azabicyclo[3.2.1]octan-3-yl)piperidin-4-yl)imidazo[1,2-a]pyridine], for which the IC50 at human TLR7 is 16.7 µM; at human TLR9 it was 0.709 µM; against human TLR8, over 50 µM.

Regarding `CC(C)CN1CCC(N2CCC(c3cc(F)c4nc(-c5ccc(S(C)(=O)=O)cc5)cn4c3)CC2)CC1` [Example 107, 8-fluoro-6-(1′-isobutyl-[1,4′-bipiperidin]-4-yl)-2-(4-(methylsulfonyl)phenyl) imidazo[1,2-a]pyridine], the IC50 on human TLR7 was 11 µM; on human TLR9, 0.1 µM; at human TLR8, over 50 µM.

As for `Cc1cc(-c2ccc(N3CCN(CC4CC4)CC3)cc2)cn2cc(-c3ccc(S(C)(=O)=O)cc3)nc12` [Example 100, 6-(4-(4-(cyclopropylmethyl)piperazin-1-yl)phenyl)-8-methyl-2-(4-(methylsulfonyl)phenyl) imidazo[1,2-a]pyridine], the IC50 at human TLR7 was 13.4 µM; on human TLR9 it was 0.329 µM; on human TLR8, 14.9 µM.

Turning to `Cc1cc(C2CCN(C3CCN(CC4CC4)CC3)CC2)cn2cc(-c3ccc(S(C)(=O)=O)cc3)nc12` [Example 92, 6-(1′-(cyclopropylmethyl)-[1,4′-bipiperidin]-4-yl)-8-methyl-2-(4-(methylsulfonyl)phenyl)imidazo[1,2-a]pyridine], the IC50 is 3.5 µM against human TLR7, 0.05 µM against human TLR9 and over 25 µM at human TLR8.

Regarding `CS(=O)(=O)c1ccc(-c2cn3cc(C4CCN(C5CCN(C6COC6)CC5)CC4)cc(F)c3n2)cc1` [Example 111, 8-fluoro-2-(4-(methylsulfonyl)phenyl)-6-(1′-(oxetan-3-yl)-[1,4′-bipiperidin]-4-yl)imidazo[1,2-a]pyridine], the IC50 was 13 µM against human TLR7, 0.235 µM on human TLR9 and over 50 µM at human TLR8.

On to `COc1ccc(-c2cn3c(n2)CCC(C2CCN(C4CCN(C(=O)C5CC5)CC4)CC2)C3)cc1OC` (racemic) [Example 42, cyclopropyl(4-(2-(3,4-dimethoxyphenyl)-5,6,7,8-tetrahydroimidazo[1,2-a]pyridin-6-yl)-[1,4′-bipiperidin]-1′-yl)methanone], for which the IC50 against human TLR7 was 19 µM; against human TLR9, 0.08 µM; against human TLR8, over 50 µM.

On to `Cc1cc(C2CCN(C3CCN(C4CC4)CC3)CC2)cn2cc(-c3ccc(S(C)(=O)=O)cc3)nc12` [Example 7, 6-(1′-cyclopropyl-[1,4′-bipiperidin]-4-yl)-8-methyl-2-(4-(methylsulfonyl)phenyl) imidazo[1,2-a]pyridine], for which the IC50 on human TLR7 was 7.8 µM; on human TLR9, 0.132 µM; on human TLR8 it was over 50 µM.

Regarding `COc1ccc(-c2cn3c(n2)CCC(C2CCN(C4CC5(C4)CN(C4CCC4)C5)CC2)C3)cc1OC` (single isomer, unassigned) [Example 50, 6-(1-(2-cyclobutyl-2-azaspiro[3.3]heptan-6-yl)piperidin-4-yl)-2-(3,4-dimethoxyphenyl)-5,6,7,8-tetrahydroimidazo[1,2-a]pyridine], the concentration for half-maximal inhibition (IC50) was 5.3 µM against human TLR7, 0.04 µM against human TLR9 and over 50 µM against human TLR8.

For `CS(=O)(=O)c1ccc(-c2cn3cc(C4CCN(C5CCN(C6CCC6)CC5)CC4)cc(F)c3n2)cc1` [Example 110, 6-(1′-cyclobutyl-[1,4′-bipiperidin]-4-yl)-8-fluoro-2-(4-(methylsulfonyl)phenyl) imidazo[1,2-a]pyridine], the results for the IC50 against human TLR7, against human TLR9 and at human TLR8 were 2.4 µM, 0.0046 µM and over 50 µM, respectively.

In the case of `CS(=O)(=O)c1ccc(-c2cn3cc(C4CCN(C5CC6CCC(C5)N6C5CCOCC5)CC4)cc(F)c3n2)cc1` (single isomer, unassigned) [Example 122, 8-fluoro-2-(4-(methylsulfonyl)phenyl)-6-(1-(8-(tetrahydro-2H-pyran-4-yl)-8-azabicyclo[3.2.1]octan-3-yl)piperidin-4-yl) imidazo[1,2-a]pyridine], the IC50 is 1.3 µM against human TLR7, 0.0078 µM at human TLR9 and 27 µM on human TLR8.
